What was measured:
[1] = target: T1, GRK5 (Homo sapiens, UniProt P34947); assay: Lance Kinase Activity Assay, GRK5; conditions: biochemical Lance kinase activity assay; class symbols A-F; read-out: GRK5 LANCE Assay (IC-50)
T1 construct: purchased Thermo Scientific
Outline: (§1)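 IC50s from sigmoidal dose-response over 0.0025-10 μM compound, with phosphorylated ULight substrate detected by Eu anti-phospho antibody FRET after EDTA quench.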

[2] = target: T2, GRK2 (Homo sapiens, UniProt P25098); assay: Lance Kinase Activity Assay, GRK2; conditions: biochemical Lance kinase activity assay; class symbols A-F; read-out: GRK2 LANCE Assay (IC-50)
T2 construct: purchased Thermo Scientific
T2 sequence (P25098 1-689): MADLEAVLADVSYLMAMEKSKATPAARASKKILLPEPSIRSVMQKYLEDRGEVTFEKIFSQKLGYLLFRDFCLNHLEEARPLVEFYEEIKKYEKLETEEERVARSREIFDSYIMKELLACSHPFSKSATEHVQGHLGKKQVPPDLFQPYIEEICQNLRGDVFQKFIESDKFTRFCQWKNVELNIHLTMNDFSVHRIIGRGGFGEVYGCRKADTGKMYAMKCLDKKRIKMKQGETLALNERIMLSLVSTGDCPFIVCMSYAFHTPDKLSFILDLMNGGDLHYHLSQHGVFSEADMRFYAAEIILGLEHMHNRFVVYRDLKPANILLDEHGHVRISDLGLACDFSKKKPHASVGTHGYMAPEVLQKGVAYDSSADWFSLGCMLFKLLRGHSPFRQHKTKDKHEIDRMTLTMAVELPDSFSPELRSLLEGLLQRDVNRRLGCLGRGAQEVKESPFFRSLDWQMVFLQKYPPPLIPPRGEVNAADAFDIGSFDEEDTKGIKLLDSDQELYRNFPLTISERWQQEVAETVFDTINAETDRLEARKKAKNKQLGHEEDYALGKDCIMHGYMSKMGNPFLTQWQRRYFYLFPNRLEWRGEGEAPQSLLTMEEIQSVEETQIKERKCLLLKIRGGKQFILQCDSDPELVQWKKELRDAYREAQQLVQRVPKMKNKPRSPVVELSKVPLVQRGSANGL
Outline: as §1

T1 sequence (P34947 whole entry): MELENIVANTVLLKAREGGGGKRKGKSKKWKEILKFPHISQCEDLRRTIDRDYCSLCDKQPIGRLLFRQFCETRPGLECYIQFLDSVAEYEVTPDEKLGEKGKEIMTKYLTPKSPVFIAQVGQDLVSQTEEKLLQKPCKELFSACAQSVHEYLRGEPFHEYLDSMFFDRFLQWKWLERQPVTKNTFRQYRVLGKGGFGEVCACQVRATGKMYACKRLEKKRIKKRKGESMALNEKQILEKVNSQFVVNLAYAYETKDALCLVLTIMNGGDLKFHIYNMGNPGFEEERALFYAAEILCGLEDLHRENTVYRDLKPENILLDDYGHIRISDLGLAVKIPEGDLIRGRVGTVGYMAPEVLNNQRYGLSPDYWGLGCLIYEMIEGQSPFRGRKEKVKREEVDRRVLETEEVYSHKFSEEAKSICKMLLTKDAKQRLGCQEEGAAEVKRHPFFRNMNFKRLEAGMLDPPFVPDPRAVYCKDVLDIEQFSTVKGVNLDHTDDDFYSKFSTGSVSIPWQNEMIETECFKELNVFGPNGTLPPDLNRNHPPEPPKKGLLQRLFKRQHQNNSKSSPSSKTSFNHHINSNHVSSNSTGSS

Row | IC50 [1] [nM] | IC50 [2] [nM] | Compound
1 | ≤ 50 | 1000 to 10000 | COc1ccc([C@@H](C)NC(=O)/C(C#N)=C/c2c[nH]c3ncc(-c4cccc(CN(C)C)c4)cc23)cc1OC [Example 148]
2 | 100 to 500 | 100 to 500 | N#C/C(=C\c1c[nH]c2ncccc12)C(=O)N[C@H](CCO)c1ccccc1 [Example 40, (R,E)-2-cyano-N-(3-hydroxy-1-phenylpropyl)-3-(1H-pyrrolo[2,3-b]pyridin-3-yl)acrylamide]
3 | ≤ 50 | 1000 to 10000 | COc1ccc([C@@H](C)NC(=O)/C(C#N)=C/c2c[nH]c3ncc(-c4ccc(NC(C)=O)cc4)cc23)cc1OC [Example 142]
4 | 1000 to 10000 | 1000 to 10000 | CC(NC(=O)/C(C#N)=C/c1c[nH]c2ncccc12)c1ccccc1-n1cccn1 (centres unmarked) [Example 38, (E)-N-(1-(2-(1H-pyrazol-1-yl)phenyl)ethyl)-2-cyano-3-(1H-pyrrolo[2,3-b]pyridin-3-yl)acrylamide]
5 | 100 to 500 | > 10000 | COc1ccc([C@@H](C)NC(=O)/C(C#N)=C/c2c[nH]c3ncc(-c4cnn(Cc5ccccc5)c4)cc23)cc1OC [Example 159]
6 | 500 to 1000 | 100 to 500 | N#C/C(=C\c1c[nH]c2ncccc12)C(=O)NCc1cccc(C(N)=O)c1 [Example 28, (E)-3-((2-cyano-3-(1H-pyrrolo[2,3-b]pyridin-3-yl)acrylamido)methyl)benzamide]
7 | ≤ 50 | 1000 to 10000 | COc1ccc([C@@H](C)NC(=O)/C(C#N)=C/c2c[nH]c3nccc(-c4ccc(CN5CCN(C)CC5)cc4)c23)cc1OC [Example 173, (R,E)-2-cyano-N-(1-(3,4-dimethoxyphenyl)ethyl)-3-(4-(4-((4-methylpiperazin-1-yl)methyl)phenyl)-1H-pyrrolo[2,3-b]pyridin-3-yl)acrylamide]
8 | ≤ 50 | 1000 to 10000 | COc1ccc([C@@H](C)NC(=O)/C(C#N)=C/c2c[nH]c3ncc(O[C@H]4CCOC4)cc23)cc1OC [Example 108, (E)-2-cyano-N-((R)-1-(3,4-dimethoxyphenyl)ethyl)-3-(5-(((S)-tetrahydrofuran-3-yl)oxy)-1H-pyrrolo[2,3-b]pyridin-3-yl)acrylamide]
9 | 500 to 1000 | 1000 to 10000 | Cc1c(-c2cnn(C)c2)cnc2[nH]cc(/C=C(\C#N)C(=O)N[C@H](C)c3ccc(Cl)cc3)c12 [Example 100, (R,E)-N-(1-(4-chlorophenyl)ethyl)-2-cyano-3-(4-methyl-5-(1-methyl-1H-pyrazol-4-yl)-1H-pyrrolo[2,3-b]pyridin-3-yl)acrylamide]
10 | 50 to 100 | > 10000 | COc1ccc(C(C)NC(=O)/C=C/c2c[nH]c3ncc(-c4cnn(C)c4)cc23)cc1C1CC1 (centres unmarked) [Example 253, (E)-N-(1-(3-cyclopropyl-4-methoxyphenyl)ethyl)-3-(5-(1-methyl-1H-pyrazol-4-yl)-1H-pyrrolo[2,3-b]pyridin-3-yl)acrylamide]
11 | ≤ 50 | 1000 to 10000 | COc1ccc([C@@H](C)NC(=O)/C(C#N)=C/c2c[nH]c3ncc(-c4cnn(CCN5CCOCC5)c4)cc23)cc1OC [Example 160]
12 | ≤ 50 | 1000 to 10000 | COc1ccc([C@@H](C)NC(=O)/C=C/c2c[nH]c3ncc(-c4cnn(C)c4)cc23)cc1OC [Example 204, (R,E)-N-(1-(3,4-dimethoxyphenyl)ethyl)-3-(5-(1-methyl-1H-pyrazol-4-yl)-1H-pyrrolo[2,3-b]pyridin-3-yl)acrylamide]
13 | ≤ 50 | 1000 to 10000 | COc1ccc([C@@H](C)NC(=O)/C=C/c2c[nH]c3ncc(-c4ccnc(S(C)(=O)=O)c4)cc23)cc1OC [Example 250, (R,E)-N-(1-(3,4-dimethoxyphenyl)ethyl)-3-(5-(2-(methylsulfonyl)pyridin-4-yl)-1H-pyrrolo[2,3-b]pyridin-3-yl)acrylamide]
14 | 100 to 500 | 500 to 1000 | C[C@@H](NC(=O)/C(C#N)=C/c1c[nH]c2ncc(Cl)cc12)c1ccc(F)cc1 [Example 76, (R,E)-3-(5-chloro-1H-pyrrolo[2,3-b]pyridin-3-yl)-2-cyano-N-(1-(4-fluorophenyl)ethyl)acrylamide]
15 | 100 to 500 | > 10000 | COc1ccc([C@@H](C)NC(=O)/C=C/c2c[nH]c3nccc(-c4ccc(C(N)=O)cc4)c23)cc1OC [Example 236, (R,E)-4-(3-(3-((1-(3,4-dimethoxyphenyl)ethyl)amino)-3-oxoprop-1-en-1-yl)-1H-pyrrolo[2,3-b]pyridin-4-yl)benzamide]
16 | 100 to 500 | > 10000 | COc1ccc([C@@H](C)NC(=O)/C(C#N)=C/c2c[nH]c3ncc(-c4ccccc4OC)cc23)cc1OC [Example 124]

Row | IC50 [1] [nM] | IC50 [2] [nM] | Compound
17 | 1000 to 10000 | > 10000 | N#C/C(=C\c1c[nH]c2ncccc12)C(=O)NCc1ccccc1CN1CCOCC1 [Example 37, (E)-2-cyano-N-(2-(morpholinomethyl)benzyl)-3-(1H-pyrrolo[2,3-b]pyridin-3-yl)acrylamide]
18 | 100 to 500 | 100 to 500 | C[C@@H](NC(=O)/C(C#N)=C/c1c[nH]c2ncccc12)c1ccc(Cl)c(Cl)c1 [Example 20, (R,E)-2-cyano-N-(1-(3,4-dichlorophenyl)ethyl)-3-(1H-pyrrolo[2,3-b]pyridin-3-yl)acrylamide]
19 | ≤ 50 | 1000 to 10000 | COc1ccc([C@@H](C)NC(=O)/C=C/c2c[nH]c3ncc(-c4cccc(N5CCN(C)CC5)c4)cc23)cc1OC [Example 185]
20 | 1000 to 10000 | > 10000 | N#C/C(=C\c1c[nH]c2ncc(C(F)(F)F)cc12)C(=O)NCc1ccccc1 [Example 71, (E)-N-benzyl-2-cyano-3-(5-(trifluoromethyl)-1H-pyrrolo[2,3-b]pyridin-3-yl)acrylamide]
21 | ≤ 50 | 1000 to 10000 | COc1ccc([C@@H](C)NC(=O)/C(C#N)=C/c2c[nH]c3ncc(-c4cnn(CC(C)O)c4)cc23)cc1OC (some centres unmarked) [Example 157]
22 | 1000 to 10000 | > 10000 | Cc1ccc(Br)cc1CNC(=O)/C(C#N)=C/c1c[nH]c2ncccc12 [Example 23, (E)-N-(5-bromo-2-methylbenzyl)-2-cyano-3-(1H-pyrrolo[2,3-b]pyridin-3-yl)acrylamide]
23 | ≤ 50 | 1000 to 10000 | COc1ccc([C@@H](C)NC(=O)/C=C/c2c[nH]c3ncc(Br)cc23)cc1OC [Example 11, (R,E)-3-(5-bromo-1H-pyrrolo[2,3-b]pyridin-3-yl)-N-(1-(3,4-dimethoxyphenyl)ethyl)acrylamide]
24 | 1000 to 10000 | 1000 to 10000 | N#C/C(=C\c1c[nH]c2ncccc12)C(=O)NCc1ccccc1CN1CCCC1=O [Example 44, (E)-2-cyano-N-(2-((2-oxopyrrolidin-1-yl)methyl)benzyl)-3-(1H-pyrrolo[2,3-b]pyridin-3-yl)acrylamide]
25 | 100 to 500 | > 10000 | COc1ccc([C@@H](C)NC(=O)/C=C/c2c[nH]c3nccc(-c4cnn(C)c4C)c23)cc1OC [Example 237, (R,E)-N-(1-(3,4-dimethoxyphenyl)ethyl)-3-(4-(1,5-dimethyl-1H-pyrazol-4-yl)-1H-pyrrolo[2,3-b]pyridin-3-yl)acrylamide]
26 | 50 to 100 | > 10000 | COc1ccc([C@@H](C)NC(=O)/C(C#N)=C/c2c[nH]c3ncc(Br)cc23)cc1OC [Example 80, (R,E)-3-(5-bromo-1H-pyrrolo[2,3-b]pyridin-3-yl)-2-cyano-N-(1-(3,4-dimethoxyphenyl)ethyl)acrylamide]
27 | 500 to 1000 | 100 to 500 | CS(=O)(=O)Nc1cccc(CNC(=O)/C(C#N)=C/c2c[nH]c3ncccc23)c1 [Example 29, (E)-2-cyano-N-(3-(methylsulfonamido)benzyl)-3-(1H-pyrrolo[2,3-b]pyridin-3-yl)acrylamide]
28 | ≤ 50 | 1000 to 10000 | COc1ccc([C@@H](C)NC(=O)/C=C/c2c[nH]c3ncc(-c4cccnc4)cc23)cc1OC [Example 186, (R,E)-N-(1-(3,4-dimethoxyphenyl)ethyl)-3-(5-(pyridin-3-yl)-1H-pyrrolo[2,3-b]pyridin-3-yl)acrylamide]
29 | 100 to 500 | > 10000 | COc1ccc([C@@H](C)NC(=O)/C(C#N)=C/c2c[nH]c3ncc(-c4ccc5ccccc5c4)cc23)cc1OC [Example 144]
30 | ≤ 50 | 500 to 1000 | COc1ccc([C@@H](C)NC(=O)/C=C/c2c[nH]c3ncc(-c4ccc(OCCN(C)C)cc4)cc23)cc1OC [Example 197, (R,E)-N-(1-(3,4-dimethoxyphenyl)ethyl)-3-(5-(4-(2-(dimethylamino)ethoxy)phenyl)-1H-pyrrolo[2,3-b]pyridin-3-yl)acrylamide]
31 | 50 to 100 | > 10000 | COc1ccc([C@@H](C)NC(=O)/C(C#N)=C/c2c[nH]c3ncc(OCc4cc(C)nn4C)cc23)cc1OC [Example 101, (R,E)-2-cyano-N-(1-(3,4-dimethoxyphenyl)ethyl)-3-(5-((1,3-dimethyl-1H-pyrazol-5-yl)methoxy)-1H-pyrrolo[2,3-b]pyridin-3-yl)acrylamide]
